# Columns and labels:
# powdery mildew [1] = assay: Test Example 4: control test of wheat powdery mildew, cup in greenhouse, inoculated; type: in vivo, Blumeria graminis; conditions: for Degree of Disease Occurrence: 22 days after seeding
# Description: Degree of Disease Occurrence=Σ(Index×Number of Leaves of Index)/(4×Number of Investigated Leaves)×100 (1)
# (§1) Seed having a mass of 1 kg of wheat (variety: Norin No. 61) was mixed into 100 ml of suspension water containing 0.5 g of the above compound (6) or compound (3) (synthesis was performed in accordance with a known method, formulated 10% wettable powder was used) and air-dried, and then, 12 seeds were sown in a plastic cup having a diameter of 6 cm containing river sand and managed in a greenhouse. The number of emerged seeds was investigated nine days after seeding, and an emergence rate was calculated (Examples 10 and 11). In Comparative Example 11 and Comparative Example 12, 20 ml of suspension water of an active ingredient, which had been adjusted to have a concentration shown in Table 5, was sprayed in a frame of 45 cm×45 cm in which a pot of wheat seedlings was placed (corresponding to 1000 L/ha) 15 days after seeding. On day 15 after seeding, conidiospores of powdery mildew were sifted over leaves of wheat seedlings and inoculated onto the leaves (after the sprayed liquid was dried in the case of Comparative Examples), a lesion area ratio of powdery mildew in a first leaf was investigated 22 days after seeding according to the criteria in Table 1, and the degree of disease occurrence was calculated by the above calculation formula (1).
# [2] = tested on: wheat (variety: Norin No. 61); assay: Test Example 4: emergence rate of wheat seed; type: in vivo
# Description: as §1
# wheat (variety: Apache) = assay: Test Example 8: emergence rate of wheat seed; type: in vivo
# Description: Seed having a mass of 1 kg of wheat (variety: Apache) was mixed into 100 ml of suspension water containing from 0.5 g or 5 g of the 3,4-dichloroisothiazole derivative of the compound (6) or (3) (synthesis was performed in accordance with a known method, formulated 10% wettable powder was used) and air-dried, and then, 12 seeds were sown in a plastic cup having a diameter of 6 cm containing river sand and managed in a greenhouse. The number of emerged seeds was investigated 12 days after seeding, and an emergence rate was calculated. In Comparative Examples 19 to 22, 20 ml of suspension water of an active ingredient, which had been adjusted to have a concentration shown in Table 9, was sprayed in a frame of 45 cm×45 cm in which a pot of wheat seedlings was placed (corresponding to 1000 L/ha) 12 days after seeding. A spore suspension in which conidiospores of septoria leaf blotch are suspended were sprayed and inoculated on leaves of wheat seedlings 12 days after seeding (after the sprayed liquid was dried in the case of Comparative Examples), a lesion area ratio of septoria leaf blotch in a second leaf was investigated 31 days after seeding according to the criteria in Table 1, and the degree of disease occurrence was calculated by the above calculation formula (1).
# powdery mildew [3] = assay: Test Example 9: control test of wheat powdery mildew, cup in greenhouse, inoculated, Norin No. 61 (Tables 10 to 14); type: in vivo, Blumeria graminis; design: key to Degree of Disease Occurrence: Σ(index×leaves)/(4×leaves investigated)×100; 0 = no disease, 100 = max
# Method in brief: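 Norin No. 61 wheat seed was treated with compound suspension (DMSO solution or 10% wettable powder), air-dried and grown in river sand in a greenhouse; comparators were sprayed at 1000 L/ha on day 14. Conidia were dusted on at day 14, and first-leaf lesion area was scored at day 21 as degree of disease occurrence.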
# septoria leaf blotch = assay: Test Example 10: control test of septoria leaf blotch of wheat, cup in greenhouse, inoculated, variety ARKEOS (Tables 15 to 19); type: in vivo, Septoria tritici
# Method in brief: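 ARKEOS wheat seed treated with compound suspension per 1 kg seed, air-dried, sown 5 per cup in greenhouse; comparative treatments sprayed on seedlings at 1000 L/ha on day 14. Conidiospores sprayed day 14; second-leaf lesion area scored ~35 days after seeding, expressed as degree of disease occurrence.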
# [4] = Foliage Spray 50 ppm suspension water (50 g/ha) day 15, first leaf
# [5] = Seed Treatment 0.5 g/Seed 1 kg (50 g/ha), inoculated day 15, first leaf
# [6] = Foliage Spray group, 50 ppm (50 g/ha) 15 days after seeding, emergence counted nine days after seeding
# [7] = Seed Treatment 0.5 g/Seed 1 kg (50 g/ha), nine days after seeding
# [8] = Foliage Treatment group, spray 50 ppm (50 g/ha) 12 days after seeding, emergence counted 12 days after seeding
# [9] = Foliage Treatment group, spray 500 ppm (500 g/ha) 12 days after seeding, emergence counted 12 days after seeding
# [10] = Seed Treatment 0.5 g/Seed 1 kg, 12 days after seeding
# [11] = Seed Treatment 5 g/Seed 1 kg (500 g/ha), 12 days after seeding
# [12] = Table 10 run, Foliage Treatment, spray 5 ppm (5 g/ha) day 14, first leaf, 21 days after seeding
# [13] = Table 10 run, Foliage Treatment, spray 50 ppm (50 g/ha) day 14, first leaf, 21 days after seeding
# [14] = Table 10 run, Seed Treatment 0.05 g/Seed 1 kg (5 g/ha), first leaf, 21 days after seeding
# [15] = Table 10 run, Seed Treatment 0.5 g/Seed 1 kg (50 g/ha), first leaf, 21 days after seeding
# [16] = Table 15, Foliage Treatment, spray 50 ppm (50 g/ha) day 14, second leaf, approximately 35 days after seeding
# [17] = Table 15, Foliage Treatment, spray 500 ppm (500 g/ha) day 14, second leaf, approximately 35 days after seeding
# [18] = Table 15, Seed Treatment 0.5 g/Seed 1 kg (50 g/ha), second leaf, approximately 35 days after seeding
# [19] = Table 15, Seed Treatment 5 g/Seed 1 kg (500 g/ha), second leaf, approximately 35 days after seeding
# [20] = Table 16, Foliage Treatment, spray 10 ppm suspension water (corresponding to 10 g/ha) 14 days after seeding, untreated 57.1
# [21] = Table 16, Foliage Treatment, spray 10 ppm suspension water (corresponding to 10 g/ha) 14 days after seeding, untreated 93.3
# [22] = Table 16, Foliage Treatment, spray 500 ppm suspension water (corresponding to 500 g/ha) 14 days after seeding, untreated 57.1
# [23] = Table 16, Foliage Treatment, spray 500 ppm suspension water (corresponding to 500 g/ha) 14 days after seeding, untreated 93.3
# [24] = Table 16, Seed Treatment, 0.1 g/Seed 1 kg (corresponding to 10 g/ha), untreated 57.1
# [25] = Table 16, Seed Treatment, 0.1 g/Seed 1 kg (corresponding to 10 g/ha), untreated 93.3
# [26] = Table 16, Seed Treatment, 5 g/Seed 1 kg (corresponding to 500 g/ha), untreated 57.1
# [27] = Table 16, Seed Treatment, 5 g/Seed 1 kg (corresponding to 500 g/ha), untreated 93.3
# [28] = Table 11 run (different day), Foliage Treatment, spray 5 ppm (5 g/ha)
# [29] = Table 11 run (different day), Foliage Treatment, spray 50 ppm (50 g/ha)
# [30] = Table 11 run (different day), Seed Treatment 0.05 g/Seed 1 kg (5 g/ha)
# [31] = Table 11 run (different day), Seed Treatment 0.5 g/Seed 1 kg (50 g/ha)
# [32] = Table 12 run (different day), Foliage Treatment, spray 50 ppm (50 g/ha)
# [33] = Table 12 run (different day), Seed Treatment 0.5 g/Seed 1 kg (50 g/ha)
Compound,Degree of Disease Occurrence (powdery mildew [1]; [4]),Degree of Disease Occurrence (powdery mildew [1]; [5]),"disease occurrence of powdery mildew, seed treatment compared with spraying on foliage during a growing period (powdery mildew [1])","Emergence Rate (%) [2, 6]","Emergence Rate (%) [2, 7]",Emergence Rate (%) (wheat (variety: Apache); [8]),Emergence Rate (%) (wheat (variety: Apache); [9]),Emergence Rate (%) (wheat (variety: Apache); [10]),Emergence Rate (%) (wheat (variety: Apache); [11]),Degree of Disease Occurrence (powdery mildew [3]; [12]),Disease Leaf Rate (%) (powdery mildew [3]; [12]),Degree of Disease Occurrence (powdery mildew [3]; [13]),Disease Leaf Rate (%) (powdery mildew [3]; [13]),Degree of Disease Occurrence (powdery mildew [3]; [14]),Disease Leaf Rate (%) (powdery mildew [3]; [14]),Degree of Disease Occurrence (powdery mildew [3]; [15]),Degree of Disease Occurrence (septoria leaf blotch; [22]),Disease Leaf Rate (%) (septoria leaf blotch; [23]),Degree of Disease Occurrence (septoria leaf blotch; [26]),Disease Leaf Rate (%) (septoria leaf blotch; [27]),further results
O=C(O)c1snc(Cl)c1Cl [Compound (6)],22.2,16.3,suppressed lower,100%,97.2%,97.2%,94.4%,88.9%,88.9%,56.3,100.0%,40.6,87.5%,48.5,93.8%,28.1,86.2,95.2%,41.3,95.0%,Disease Leaf Rate (%) (powdery mildew [3]; [15]): 87.1%; Degree of Disease Occurrence (septoria leaf blotch; [16]): 29.5; Disease Leaf Rate (%) (septoria leaf blotch; [16]): 88.9%; Degree of Disease Occurrence (septoria leaf blotch; [17]): 48.5; Disease Leaf Rate (%) (septoria leaf blotch; [17]): 100.0%; Degree of Disease Occurrence (septoria leaf blotch; [18]): 16.1; Disease Leaf Rate (%) (septoria leaf blotch; [18]): 58.8%; Degree of Disease Occurrence (septoria leaf blotch; [19]): 4.2; Disease Leaf Rate (%) (septoria leaf blotch; [19]): 16.9%; Degree of Disease Occurrence (septoria leaf blotch; [20]): 53.3; Disease Leaf Rate (%) (septoria leaf blotch; [21]): 100.0%; Degree of Disease Occurrence (septoria leaf blotch; [24]): 34.7; Disease Leaf Rate (%) (septoria leaf blotch; [25]): 84.4%
"O=S1(=O)N=C(OCc2snc(Cl)c2Cl)c2ccccc21 [Compound (1), Dichlobentiazox]",,,,,,,,,,,,,,,,,71.9,100.0%,45.7,95.8%,Degree of Disease Occurrence (powdery mildew [3]; [28]): 95.3; Disease Leaf Rate (%) (powdery mildew [3]; [28]): 100%; Degree of Disease Occurrence (powdery mildew [3]; [29]): 89.1; Disease Leaf Rate (%) (powdery mildew [3]; [29]): 100%; Degree of Disease Occurrence (powdery mildew [3]; [30]): 56.4; Disease Leaf Rate (%) (powdery mildew [3]; [30]): 93.8%; Degree of Disease Occurrence (powdery mildew [3]; [31]): 22.7; Disease Leaf Rate (%) (powdery mildew [3]; [31]): 71.9%; Degree of Disease Occurrence (powdery mildew [3]; [32]): 21.7; Disease Leaf Rate (%) (powdery mildew [3]; [32]): 46.7%; Degree of Disease Occurrence (powdery mildew [3]; [33]): 0.0; Disease Leaf Rate (%) (powdery mildew [3]; [33]): 0.0%
OCc1snc(Cl)c1Cl [Compound (3)],62.1,17.0,suppressed lower,97.2%,97.2%,97.2%,97.2%,97.2%,86.1%,63.5,100.0%,56.3,100.0%,45.2,100.0%,14.8,77.4,100.0%,40.4,85.7%,Disease Leaf Rate (%) (powdery mildew [3]; [15]): 59.4%; Degree of Disease Occurrence (septoria leaf blotch; [16]): 29.3; Disease Leaf Rate (%) (septoria leaf blotch; [16]): 97.0%; Degree of Disease Occurrence (septoria leaf blotch; [17]): 37.5; Disease Leaf Rate (%) (septoria leaf blotch; [17]): 91.7%; Degree of Disease Occurrence (septoria leaf blotch; [18]): 22.2; Disease Leaf Rate (%) (septoria leaf blotch; [18]): 77.8%; Degree of Disease Occurrence (septoria leaf blotch; [19]): 8.2; Disease Leaf Rate (%) (septoria leaf blotch; [19]): 32.8%; Degree of Disease Occurrence (septoria leaf blotch; [20]): 62.5; Disease Leaf Rate (%) (septoria leaf blotch; [21]): 100.0%; Degree of Disease Occurrence (septoria leaf blotch; [24]): 40.6; Disease Leaf Rate (%) (septoria leaf blotch; [25]): 96.9%

# — US20220000117A1, “METHOD FOR CONTROLLING DISEASES IN SMALL GRAIN CEREALS, SEED OF SMALL GRAIN CEREALS, AND METHOD FOR SUPPRESSING LODGING DAMAGE IN SMALL GRAIN CEREALS” (KUMIAI CHEMICAL INDUSTRY CO., LTD., priority 2019, published 2022)
